This passage reports relative viability results from the supplement of paper PMC10307832.

The first assay has as its system NCI-H1755. Kind of assay: relative viability (nuclei count vs DMSO), 5 days (fraction); higher = more cells survive. The settings on record: first compound 6.325 µM. In a few lines: (§1)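 Dosing by pin tool came one day after lung cancer cell lines were seeded in 1536-well plates, using either one drug or a fixed anchor-drug dose plus five library-drug doses (not always all listed) in √10 steps. After 5 days, nuclei were counted on 4× images. Relative viability is treated-well nuclei count divided by vehicle-well nuclei count, and values are medians of duplicate plates.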
Consider `COCC1(CO)C(=O)C2CCN1CC2` (stereo not drawn) [PRIMA-1MET] + N=C(N)NC(=N)NCCc1ccccc1 [Phenformin] (partner 250 µM), for which the relative viability stood at 0.635.

`COCC1(CO)C(=O)C2CCN1CC2` (stereo not drawn) [PRIMA-1MET] + Nc1nc2[nH]cc(CCc3ccc(C(=O)N[C@@H](CCC(=O)O)C(=O)O)cc3)c2c(=O)[nH]1 [Pemetrexed] (partner 0.2 µM) gave a relative viability of 0.333.

In turn, `COCC1(CO)C(=O)C2CCN1CC2` (stereo not drawn) [PRIMA-1MET] + Cc1nc(Nc2ncc(C(=O)Nc3c(C)cccc3Cl)s2)cc(N2CCN(CCO)CC2)n1 [Dasatinib] (partner 0.075 µM) displayed a relative viability of 0.434.

The same assay, now with this note: first compound 20 µM.
Take `COCC1(CO)C(=O)C2CCN1CC2` (stereo not drawn) [PRIMA-1MET] + CCNC(=O)c1noc(-c2cc(C(C)C)c(O)cc2O)c1-c1ccc(CN2CCOCC2)cc1 [Luminespib] (partner 0.01 µM): the relative viability came out at 0.454.

As to `COCC1(CO)C(=O)C2CCN1CC2` (stereo not drawn) [PRIMA-1MET] + COc1cccc2cc(-c3nc([C@H]4CC[C@H](C(=O)O)CC4)n4ncnc(N)c34)[nH]c12 [OSI-027] (partner 0.5 µM), the relative viability stood at 0.673.

On to `COCC1(CO)C(=O)C2CCN1CC2` (stereo not drawn) [PRIMA-1MET] + N=C(N)NC(=N)NCCc1ccccc1 [Phenformin] (partner 250 µM), for which the relative viability came out at 0.574.

Consider `COCC1(CO)C(=O)C2CCN1CC2` (stereo not drawn) [PRIMA-1MET] + Nc1nc2[nH]cc(CCc3ccc(C(=O)N[C@@H](CCC(=O)O)C(=O)O)cc3)c2c(=O)[nH]1 [Pemetrexed] (partner 0.2 µM), for which the relative viability came to 0.373.

Take `COCC1(CO)C(=O)C2CCN1CC2` (stereo not drawn) [PRIMA-1MET] + Cc1nc(Nc2ncc(C(=O)Nc3c(C)cccc3Cl)s2)cc(N2CCN(CCO)CC2)n1 [Dasatinib] (partner 0.075 µM): the relative viability came out at 0.423.

Another assay has as its system NCI-H460. Described as above. The note with it: first compound 0.2 µM. Put shortly:
as §1
`COCC1(CO)C(=O)C2CCN1CC2` (stereo not drawn) [PRIMA-1MET] + CCNC(=O)c1noc(-c2cc(C(C)C)c(O)cc2O)c1-c1ccc(CN2CCOCC2)cc1 [Luminespib] (partner 0.01 µM) yielded a relative viability of 0.0337.

As to `COCC1(CO)C(=O)C2CCN1CC2` (stereo not drawn) [PRIMA-1MET] + COc1cccc2cc(-c3nc([C@H]4CC[C@H](C(=O)O)CC4)n4ncnc(N)c34)[nH]c12 [OSI-027] (partner 0.5 µM), the relative viability is 0.653.

For the molecule `COCC1(CO)C(=O)C2CCN1CC2` (stereo not drawn) [PRIMA-1MET] + N=C(N)NC(=N)NCCc1ccccc1 [Phenformin] (partner 250 µM), the relative viability was 0.658.

`COCC1(CO)C(=O)C2CCN1CC2` (stereo not drawn) [PRIMA-1MET] + Nc1nc2[nH]cc(CCc3ccc(C(=O)N[C@@H](CCC(=O)O)C(=O)O)cc3)c2c(=O)[nH]1 [Pemetrexed] (partner 0.2 µM) returned a relative viability of 0.0602.

Consider `COCC1(CO)C(=O)C2CCN1CC2` (stereo not drawn) [PRIMA-1MET] + Cc1nc(Nc2ncc(C(=O)Nc3c(C)cccc3Cl)s2)cc(N2CCN(CCO)CC2)n1 [Dasatinib] (partner 0.075 µM), for which the relative viability amounted to 0.495.

The same assay, now with this note: first compound 0.6325 µM.
`COCC1(CO)C(=O)C2CCN1CC2` (stereo not drawn) [PRIMA-1MET] + CCNC(=O)c1noc(-c2cc(C(C)C)c(O)cc2O)c1-c1ccc(CN2CCOCC2)cc1 [Luminespib] (partner 0.01 µM) returned a relative viability of 0.0272.

`COCC1(CO)C(=O)C2CCN1CC2` (stereo not drawn) [PRIMA-1MET] + COc1cccc2cc(-c3nc([C@H]4CC[C@H](C(=O)O)CC4)n4ncnc(N)c34)[nH]c12 [OSI-027] (partner 0.5 µM) displayed a relative viability of 0.624.

The molecule `COCC1(CO)C(=O)C2CCN1CC2` (stereo not drawn) [PRIMA-1MET] + N=C(N)NC(=N)NCCc1ccccc1 [Phenformin] (partner 250 µM) came in with a relative viability of 0.495.

In turn, `COCC1(CO)C(=O)C2CCN1CC2` (stereo not drawn) [PRIMA-1MET] + Nc1nc2[nH]cc(CCc3ccc(C(=O)N[C@@H](CCC(=O)O)C(=O)O)cc3)c2c(=O)[nH]1 [Pemetrexed] (partner 0.2 µM) came in with a relative viability of 0.051.

On to `COCC1(CO)C(=O)C2CCN1CC2` (stereo not drawn) [PRIMA-1MET] + Cc1nc(Nc2ncc(C(=O)Nc3c(C)cccc3Cl)s2)cc(N2CCN(CCO)CC2)n1 [Dasatinib] (partner 0.075 µM), for which the relative viability worked out at 0.321.

The same assay, now with this note: first compound 2 µM.
Turning to `COCC1(CO)C(=O)C2CCN1CC2` (stereo not drawn) [PRIMA-1MET] + CCNC(=O)c1noc(-c2cc(C(C)C)c(O)cc2O)c1-c1ccc(CN2CCOCC2)cc1 [Luminespib] (partner 0.01 µM), the relative viability stood at 0.0258.

Regarding `COCC1(CO)C(=O)C2CCN1CC2` (stereo not drawn) [PRIMA-1MET] + COc1cccc2cc(-c3nc([C@H]4CC[C@H](C(=O)O)CC4)n4ncnc(N)c34)[nH]c12 [OSI-027] (partner 0.5 µM), the relative viability amounted to 0.487.

Take `COCC1(CO)C(=O)C2CCN1CC2` (stereo not drawn) [PRIMA-1MET] + N=C(N)NC(=N)NCCc1ccccc1 [Phenformin] (partner 250 µM): the relative viability was found to be 0.481.

Turning to `COCC1(CO)C(=O)C2CCN1CC2` (stereo not drawn) [PRIMA-1MET] + Nc1nc2[nH]cc(CCc3ccc(C(=O)N[C@@H](CCC(=O)O)C(=O)O)cc3)c2c(=O)[nH]1 [Pemetrexed] (partner 0.2 µM), the relative viability was 0.0601.

Consider `COCC1(CO)C(=O)C2CCN1CC2` (stereo not drawn) [PRIMA-1MET] + Cc1nc(Nc2ncc(C(=O)Nc3c(C)cccc3Cl)s2)cc(N2CCN(CCO)CC2)n1 [Dasatinib] (partner 0.075 µM), for which the relative viability stood at 0.511.

The same assay, now with this note: first compound 6.325 µM.
As to `COCC1(CO)C(=O)C2CCN1CC2` (stereo not drawn) [PRIMA-1MET] + CCNC(=O)c1noc(-c2cc(C(C)C)c(O)cc2O)c1-c1ccc(CN2CCOCC2)cc1 [Luminespib] (partner 0.01 µM), the relative viability amounted to 0.0312.

Turning to `COCC1(CO)C(=O)C2CCN1CC2` (stereo not drawn) [PRIMA-1MET] + COc1cccc2cc(-c3nc([C@H]4CC[C@H](C(=O)O)CC4)n4ncnc(N)c34)[nH]c12 [OSI-027] (partner 0.5 µM), the relative viability was determined as 0.323.

As to `COCC1(CO)C(=O)C2CCN1CC2` (stereo not drawn) [PRIMA-1MET] + N=C(N)NC(=N)NCCc1ccccc1 [Phenformin] (partner 250 µM), the relative viability came to 0.042.

The molecule `COCC1(CO)C(=O)C2CCN1CC2` (stereo not drawn) [PRIMA-1MET] + Nc1nc2[nH]cc(CCc3ccc(C(=O)N[C@@H](CCC(=O)O)C(=O)O)cc3)c2c(=O)[nH]1 [Pemetrexed] (partner 0.2 µM) returned a relative viability of 0.0553.

Turning to `COCC1(CO)C(=O)C2CCN1CC2` (stereo not drawn) [PRIMA-1MET] + Cc1nc(Nc2ncc(C(=O)Nc3c(C)cccc3Cl)s2)cc(N2CCN(CCO)CC2)n1 [Dasatinib] (partner 0.075 µM), the relative viability stood at 0.518.

The same assay, now with this note: first compound 20 µM.
Consider `COCC1(CO)C(=O)C2CCN1CC2` (stereo not drawn) [PRIMA-1MET] + CCNC(=O)c1noc(-c2cc(C(C)C)c(O)cc2O)c1-c1ccc(CN2CCOCC2)cc1 [Luminespib] (partner 0.01 µM), for which the relative viability came out at 0.0174.

For `COCC1(CO)C(=O)C2CCN1CC2` (stereo not drawn) [PRIMA-1MET] + COc1cccc2cc(-c3nc([C@H]4CC[C@H](C(=O)O)CC4)n4ncnc(N)c34)[nH]c12 [OSI-027] (partner 0.5 µM), the relative viability worked out at 0.0164.

On to `COCC1(CO)C(=O)C2CCN1CC2` (stereo not drawn) [PRIMA-1MET] + N=C(N)NC(=N)NCCc1ccccc1 [Phenformin] (partner 250 µM), for which the relative viability was 0.0117.

For `COCC1(CO)C(=O)C2CCN1CC2` (stereo not drawn) [PRIMA-1MET] + Nc1nc2[nH]cc(CCc3ccc(C(=O)N[C@@H](CCC(=O)O)C(=O)O)cc3)c2c(=O)[nH]1 [Pemetrexed] (partner 0.2 µM), the relative viability worked out at 0.0386.

Molecule `COCC1(CO)C(=O)C2CCN1CC2` (stereo not drawn) [PRIMA-1MET] + Cc1nc(Nc2ncc(C(=O)Nc3c(C)cccc3Cl)s2)cc(N2CCN(CCO)CC2)n1 [Dasatinib] (partner 0.075 µM) showed a relative viability of 0.196.
